This note sets out measurements from US12157730B2, “Heteroaryl derivative, method for producing same, and pharmaceutical composition comprising same as effective component” (VORONOI INC., priority 2019, dated 2024).

Molecules are shown by their SMILES.

This assay has as its target T1, Ba/F3 cell EGFR Exon20 ins NPH (Homo sapiens, UniProt P00533, INS773NPH).
T1 construct: expressed in transfected cells; host or cells: Ba/F3
Put plainly: Ba/F3 cell proliferation suppression, EGFR Exon20 ins NPH. Format: cell-based. Conditions: GI50 class; Ba/F3 cell line with NPH inserted at Exon20 of EGFR; 72 hours. The method, boiled down:
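Seed 3000–5000 cells/well; after 24 h add compound (12 conc., 0.3 nM–50 um final); incubate 72 h; add CellTiter-Glo, 10 min room temperature; read luminescence; GI50 from % growth vs control, triplicate.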

As for `C=CC(=O)Nc1cc(Nc2cc(N3OCC[C@@H]3c3ccc(Cl)c(Cl)c3)ncn2)c(OC)cc1N1C[C@H]2C[C@@H]1CN2CC` [compound 676, N-(5-((6-((R)-3-(3,4-dichlorophenyl)isoxazolidine-2-yl)pyrimidine-4-yl)amino)-2-((1R,4R)-5-ethyl-2,5-diazabicyclo[2.2.1]heptane-2-yl)-4-methoxyphenyl) acrylamide], the “Ba/F3 (NPH) Activity” value is recorded as “A (GI50 < 50 nM)”. Then `C=CC(=O)Nc1cc(Nc2cc(N3OCC[C@@H]3c3ccc(Cl)c(Cl)c3)ncn2)c(OC)cc1N1CCN(CCN(C)C)CC1` [compound 686, N-(5-((6-((R)-3-(3,4-dichlorophenyl)isoxazolidine-2-yl)pyrimidine-4-yl)amino)-2-(4-(2-(dimethylamino)ethyl)piperazine-1-yl)-4-methoxyphenyl) acrylamide], with “B (50 nM ≤ GI50 < 500 nM)”; and `C=CC(=O)Nc1cc(Nc2cc(N3OCC[C@@H]3c3ccc(F)c(Cl)c3)ncn2)c(OC)cc1N1CCC(N2CCN(C(C)C)CC2)CC1` [compound 715, N-(5-((6-((R)-3-(3-chloro-4-fluorophenyl)isoxazolidine-2-yl)pyrimidine-4-yl)amino)-2-(4-(4-isopropylpiperazine-1-yl)piperidine-1-yl)-4-methoxyphenyl) acrylamide], with “A (GI50 < 50 nM)”. In the case of `C=CC(=O)Nc1cc(Nc2cc(N3OCC[C@@H]3c3ccc(F)c(Cl)c3F)ncn2)c(OC)cc1N1CCC(N2CCOCC2)CC1` [compound 606, N-(5-((6-((R)-3-(3-chloro-2,4-difluorophenyl)isoxazolidine-2-yl)pyrimidine-4-yl)amino)-4-methoxy-2-(4-morpholinopiperidine-1-yl)phenyl)acrylamide] it was “A (GI50 < 50 nM)”.

For the molecule `C=CC(=O)Nc1cc(Nc2cc(N3OCC[C@@H]3c3cc(F)ccc3F)ncn2)c(OC)cc1N1CCC(N2C[C@H](C)N(C3CC3)C[C@@H]2C)CC1` [Example 171, N-(2-(4-((2S,5S)-4-cyclopropyl-2,5-dimethylpiperazine-1-yl)piperidine-1-yl)-5-((6-((R)-3-(2,5-difluorophenyl)isoxazolidine-2-yl)pyrimidine-4-yl)amino)-4-methoxyphenyl) acrylamide], the “Ba/F3 (NPH) Activity” value is listed as “A (GI50 < 50 nM)”. Then `C=CC(=O)Nc1cc(Nc2cc(N3OCC[C@@H]3c3ccc(C)nc3)ncn2)c(OC)cc1N(C)CCOC` [Example 223, N-(4-methoxy-2-((2-methoxyethyl) (methyl)amino)-5-((6-((R)-3-(6-methylpyridine-3-yl)isoxazolidine-2-yl)pyrimidine-4-yl)amino)phenyl)acrylamide], with “B (50 nM ≤ GI50 < 500 nM)”; and `C=CC(=O)Nc1cc(Nc2cc(N3OCC[C@@H]3c3cccc(C#N)c3)ncn2)c(OC)cc1N1CCC(O)CC1` [compound 390, N-(5-((6-((R)-3-(3-cyanophenyl)isoxazolidine-2-yl)pyrimidine-4-yl)amino)-2-(4-hydroxypiperidine-1-yl)-4-methoxyphenyl) acrylamide], with “B (50 nM ≤ GI50 < 500 nM)”; and `C=CC(=O)Nc1cc(Nc2cc(N3OCCC3(C)c3ccccc3)ncn2)c(OC)cc1N1CCC(N2CCN(CC)CC2)CC1` (centres unmarked) [Example 261, N-(2-(4-(4-ethylpiperazine-1-yl)piperidine-1-yl)-4-methoxy-5-((6-(3-methyl-3-phenylisoxazolidine-2-yl)pyrimidine-4-yl)amino)phenyl) acrylamide], with “C (500 nM ≤ GI50 < 5000 nM)”.

For `C=CC(=O)Nc1cc(Nc2cc(N3OCC[C@H]3Cc3ccccc3)ncn2)c(OC)cc1N1CCN(CC2CC2)CC1` [compound 967, N-(5-((6-((R)-3-benzylisoxazolidine-2-yl)pyrimidine-4-yl)amino)-2-(4-(cyclopropylmethyl)piperazine-1-yl)-4-methoxyphenyl) acrylamide], the “Ba/F3 (NPH) Activity” value is given as “C (500 nM ≤ GI50 < 5000 nM)”. In the case of `C=CC(=O)Nc1cc(Nc2cc(N3OCC[C@@H]3c3cccc(F)c3)ncn2)c(OC)cc1N1CC[C@H](N(C)C)C1` [compound 839, N-(2-((S)-3-(dimethylamino)pyrolidine-1-yl)-5-((6-((R)-3-(3-fluorophenyl)isoxazolidine-2-yl)pyrimidine-4-yl)amino)-4-methoxyphenyl) acrylamide] it was “A (GI50 < 50 nM)”. In the case of `C=CC(=O)Nc1cc(Nc2cc(N3OCC[C@@H]3c3ccc(F)c(F)c3)ncn2)c(OC)cc1N1C2CC1CN(C)C2` [compound 542, N-(5-((6-((R)-3-(3,4-difluorophenyl)isoxazolidine-2-yl)pyrimidine-4-yl)amino)-4-methoxy-2-(3-methyl-3,6-diazabicyclo [3.1.1]heptane-6-yl)phenyl)acrylamide] it was “B (50 nM ≤ GI50 < 500 nM)”. Then `C=CC(=O)Nc1cc(Nc2cc(N3OCC[C@@H]3c3cccc(C)c3F)ncn2)c(OC)cc1N1CCC(N2CCOCC2)CC1` [compound 856, N-(5-((6-((R)-3-(2-fluoro-3-methylphenyl)isoxazolidine-2-yl)pyrimidine-4-yl)amino)-4-methoxy-2-(4-morpholinopiperidine-1-yl)phenyl)acrylamide], with “A (GI50 < 50 nM)”. In the case of `C=CC(=O)Nc1cc(Nc2cc(N3OCC[C@@H]3c3cccc(Cl)c3F)ncn2)c(OC)cc1N1CCC(N2CCN(C3CC3)[C@H](C)C2)CC1` [Example 180, N-(5-((6-((R)-3-(3-chloro-2-fluorophenyl)isoxazolidine-2-yl)pyrimidine-4-yl)amino)-2-(4-((R)-4-cyclopropyl-3-methylpiperazine-1-yl)piperidine-1-yl)-4-methoxyphenyl) acrylamide], the “Ba/F3 (NPH) Activity” value is “A (GI50 < 50 nM)”. In the case of `C=CC(=O)Nc1cc(Nc2cc(N3OCC[C@@H]3c3ccc(Cl)cc3)ncn2)c(OC)cc1N1CCC(N2CCN(C3CCC3)CC2)CC1` [Example 75, N-(5-((6-((R)-3-(4-chlorophenyl)isoxazolidine-2-yl)pyrimidine-4-yl)amino)-2-(4-(4-cyclobutylpiperazine-1-yl)piperidine-1-yl)-4-methoxyphenyl) acrylamide] it was “A (GI50 < 50 nM)”; in that of `C=CC(=O)Nc1cc(Nc2cc(N3OCC[C@@H]3c3cc(F)cc(Cl)c3)ncn2)c(OC)cc1N(C)CCN(C)C` [compound 538, N-(5-((6-((R)-3-(3-chloro-5-fluorophenyl)isoxazolidine-2-yl)pyrimidine-4-yl)amino)-2-((2-(dimethylamino)ethyl)(methyl)amino)-4-methoxyphenyl)acrylamide], “A (GI50 < 50 nM)”; in that of `C=CC(=O)Nc1cc(Nc2cc(N3OCC[C@@H]3c3cc(F)ccc3F)ncn2)c(OC)cc1N1CCC(N2CCN(CC)CC2)CC1` [compound 767, N-(5-((6-((R)-3-(2,5-difluorophenyl)isoxazolidine-2-yl)pyrimidine-4-yl)amino)-2-(4-(4-ethylpiperazine-1-yl)piperidine-1-yl)-4-methoxyphenyl) acrylamide], “A (GI50 < 50 nM)”. With `C=CC(=O)Nc1cc(Nc2cc(N3OCC[C@@H]3c3ccc(F)c(F)c3F)ncn2)c(OC)cc1N1CCN(C)CC1` [compound 572, N-(4-methoxy-2-(4-methylpiperazine-1-yl)-5-((6-((R)-3-(2,3,4-trifluorophenyl)isoxazolidine-2-yl)pyrimidine-4-yl)amino)phenyl) acrylamide], the “Ba/F3 (NPH) Activity” value is reported as “A (GI50 < 50 nM)”.
